This note sets out measurements from publication PMC8058163 (Clinical pharmacology and therapeutics, 2020).

The structures appear in SMILES notation. Like-named read-outs stand apart in the source and are kept apart here.

Data set [1] is described as follows: clinical. Particulars: both, human, in vivo.

On to `CC(C)c1nc(N(C)S(C)(=O)=O)nc(-c2ccc(F)cc2)c1/C=C/[C@@H](O)C[C@@H](O)CC(=O)O` [Rosuvastatin acid, rosuvastatin], for which, for the setting “both, human, in vivo”, the “AUC0–24, goldenseal exposure / baseline ratio” value was 1.01 [0.91–1.13]; the “ClR, goldenseal exposure / baseline ratio” value was 0.96 [0.89–1.03]; the “Cmax, goldenseal exposure / baseline ratio” value was 1.08 [0.94–1.22]. In data set [1], the AUC(0-t) was found to be 0.06 µM·h, the CL renal is 247 mL/min and the Cmax was 7.9 nM. In addition, in data set [1] (po), the AUC(0-t) was 0.059 µM·h, the CL renal was 257 mL/min and the Cmax was 7.4 nM.
On to `CC(C)c1nc(N(C)S(C)(=O)=O)nc(-c2ccc(F)cc2)c1/C=C/[C@@H]1C[C@@H](O)CC(=O)O1` [Rosuvastatin lactone, rosuvastatin lactone], for which, under “human, in vivo”, the “AUC0–72” value was 27 [23–32] nM*h and the peak level (Cmax) was 1.5 nM. In addition, where the note is “human, in vivo, po”, the “AUC0–72” value was 28 [24–32] nM*h and the Cmax is 1.5 nM.
Consider `CN(C)C(=N)N=C(N)N` [Metformin, metformin], for which, in data set [1], the AUC(0-inf) amounted to 3.8 µM·h, the AUC(0-t) was 3.6 µM·h, the CL renal is 700 mL/min and the highest level (Cmax) was 540 nM. Further, in data set [1] (po), the AUC(0-inf) stood at 5 µM·h, the AUC(0-t) came to 4.7 µM·h, the CL renal is 683 mL/min and the Cmax was 750 nM.
Consider `Cc1ncc2n1-c1ccc(Cl)cc1C(c1ccccc1F)=NC2` [Midazolam, midazolam], for which, where the note is “in the presence of goldenseal”, the “increase of geometric mean Cmax” value turned out to be 31% and the “increase of systemic exposure” value is ~ 40%. In addition, in data set [1], the AUC(0-inf) is 0.096 µM·h, the AUC(0-t) stood at 0.086 µM·h and the CL renal was 1.17 mL/min. In data set [1] (po), the AUC(0-inf) was determined as 0.067 µM·h, the AUC(0-t) worked out at 0.062 µM·h, the CL renal is 0.833 mL/min and the Cmax was found to be 26 nM. The half-life in data set [1] (po) was 3.9 h.

As a reminder, the AUC(0-t) is the area under the concentration-time curve up to a stated or last time point. A low value points to less exposure. In general, Cmax refers to the peak of the concentration-time curve. In general, AUC(0-inf) refers to the area under the concentration-time curve extrapolated to infinity. A high value points to high exposure. In general, half-life refers to how long it takes for the measured level to halve. High values mean slow decline, low ones rapid decline.
